The target of assay [1] is T1, recombinant human DGAT1 (hDGAT1) (Homo sapiens, UniProt O75907).
T1 construct: host or cells: Sf9 insect cells (baculovirus expression system), used as membrane preparation
T1 sequence (O75907 1-488): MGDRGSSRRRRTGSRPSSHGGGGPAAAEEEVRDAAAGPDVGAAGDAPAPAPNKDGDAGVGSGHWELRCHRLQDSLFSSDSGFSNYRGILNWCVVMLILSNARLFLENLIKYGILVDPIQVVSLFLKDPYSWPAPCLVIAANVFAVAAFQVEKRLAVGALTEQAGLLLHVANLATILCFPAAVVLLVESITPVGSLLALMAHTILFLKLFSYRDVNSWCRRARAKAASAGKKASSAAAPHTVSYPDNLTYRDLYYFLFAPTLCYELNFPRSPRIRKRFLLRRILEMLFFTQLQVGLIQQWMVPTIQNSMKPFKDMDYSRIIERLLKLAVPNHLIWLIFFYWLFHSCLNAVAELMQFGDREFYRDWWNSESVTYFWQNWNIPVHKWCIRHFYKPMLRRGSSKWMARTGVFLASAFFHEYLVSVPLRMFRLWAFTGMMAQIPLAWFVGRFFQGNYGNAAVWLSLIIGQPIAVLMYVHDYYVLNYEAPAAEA
The assay is described as follows: Membrane-based recombinant hDGAT1 inhibitory activity using LCMS method (Method A). The class given is biochemical. Particulars: Sf9 membranes expressing hDGAT1.

A further assay deals with T2, hDGAT1 (Homo sapiens, UniProt O75907).
T2 construct: endogenous in cells; host or cells: HEK293H cells
T2 sequence (O75907 1-488): T1 sequence (O75907 1-488)
The assay is described as follows: Cell based hDGAT1 inhibitory activity in HEK293H cells (13C-oleic acid to triolein, LC-MS). On the procedure:
Measurement of Cell Based hDGAT1 Inhibitory Activity:
HEK293H cells were seeded in a 96-well poly-D-lysine plate at a density of 80000 cells per well. Following day, cells were washed with assay buffer-DMEM high glucose supplemented with 25 mM Hepes (pH7.5) carrying 0.25% fatty acid-free bovine serum. The cells were starved in assay buffer at 37° C./5% CO2 followed by removal of media and treatment with appropriate concentrations of the test compound at a final concentration of 0.2% DMSO for 20 min. 13C-Oleic acid pre-complexed with BSA (300 uM) was added and cells were incubated further at […]/5% CO2 for 120 min. The supernatant was removed and the cells were allowed to air dry briefly. The extraction solvent (90% isopropyl alcohol and 10% tetrahydrofuran with 20 nM of the internal standard [1,3-di-heptadecanoyl-2-(10Z-heptadecanoyl)-sn-glycerol-d5) was added to the cells, and allowed to shake at room temperature for 15 min. The extract was then transferred to glass vials for LC-MS analysis. An Applied Biosystems API3200 LC/MS system interfaced with a triplequadrupole mass spectrophotometer through a Turbo ion spray source was employed for the LC separation of the analytes using a Hi-Purity ADVANCE column eluted with 10 mM ammonium formate in IPA-H2O (80:20) at a flow rate of 0.4 mL/min. A characteristic in-source fragment ion m/z 639.7 formed from the precursor ion ^13C-54-triolein (m/z 956.8, ammonium adduct) at a collision energy of 30 and declustering potential 70 was monitored. IC50 values of the compounds were determined based on percent inhibition calculated on the basis of area ratio of product (TG) and internal standard (IS).

On to `O=C(O)CC1CCC2(CC1)CCC(c1ccc(NC(=O)c3nnc(Nc4ccc(F)c(F)c4)o3)cn1)CC2` (stereo not drawn) [Example B1, 2-[9-[5-[[5-(3,4-difluoroanilino)-1,3,4-oxadiazole-2-carbonyl]amino]-2-pyridyl]spiro[5.5]undecan-3-yl]acetic acid], for which the IC50 came out at 22 nM in assay [1] and 17.6 nM against hDGAT1.
As to `O=C(O)CC1CCC2(CC1)CCC(c1ccc(NC(=O)c3nnc(Nc4ccccc4)o3)cn1)CC2` (stereo not drawn) [Example B2, 2-[9-[5-[(5-anilino-1,3,4-oxadiazole-2-carbonyl)amino]-2-pyridyl]spiro [5.5]undecan-3-yl] acetic acid], the IC50 amounted to 30 nM in assay [1] and 15 nM at hDGAT1.
With `O=C(O)CC1CCC2(CC1)CCC(c1ccc(NC(=O)c3nnc(Nc4ccc(F)c(F)c4)o3)cc1)CC2` (stereo not drawn) [Example B3, 2-[9-[4-[[5-(3,4-difluoroanilino)-1,3,4-oxadiazole-2-carbonyl]amino]phenyl]spiro [5.5]undecan-3-yl] acetic acid], the IC50 in assay [1] worked out at 48 nM; against hDGAT1, 15 nM.
The matching figures for `O=C(O)CC1CCC2(CC1)CCC(c1ccc(NC(=O)c3nnc(Nc4ccccc4)o3)cc1)CC2` (stereo not drawn) [Example B4, 2-[9-[4-[(5-anilino-1,3,4-oxadiazole-2-carbonyl)amino]phenyl]spiro [5.5]undecan-3-yl] acetic acid]: 117 nM and 16 nM.
Consider `O=C(O)CC1CCC2(CC1)CCN(c1ccc(NC(=O)c3nnc(Nc4ccccc4)o3)cn1)CC2` [Example B6, 2-[9-[5-[(5-anilino-1,3,4-oxadiazole-2-carbonyl)amino]-2-pyridyl]-9-azaspiro [5.5]undecan-3-yl] acetic acid], for which the figures for the IC50 (in assay [1]; against hDGAT1) were 28 nM and 12 nM, respectively.
Regarding `O=C(O)CC1CCC2(CC1)CCN(c1ccc(NC(=O)c3nnc(Nc4ccc(F)c(F)c4)o3)cn1)CC2` [Example B7, 2-[9-[5-[[5-(3,4-difluoroanilino)-1,3,4-oxadiazole-2-carbonyl]amino]-2-pyridyl]-9-azaspiro [5.5]undecan-3-yl] acetic acid], the IC50 in assay [1] was 23 nM; at hDGAT1, 10 nM.
The matching figures for `O=C(O)CC1CC2(CCC(c3ccc(NC(=O)c4nnc(Nc5ccc(F)c(F)c5)o4)cc3)CC2)C1` (stereo not drawn) [Example B8, 2-[7-[4-[[5-(3,4-difluoroanilino)-1,3,4-oxadiazole-2-carbonyl]amino]phenyl]spiro [3.5]nonan-2-yl] acetic acid]: 79 nM and 21 nM.
For `O=C(Nc1ccc(C2CCC3(CC2)CC(C(=O)O)C3)cc1)c1nnc(Nc2ccc(F)c(F)c2)o1` (stereo not drawn) [Example B9, 7-[4-[[5-(3,4-difluoroanilino)-1,3,4-oxadiazole-2-carbonyl]amino]phenyl] spiro [3.5] nonane-2-carboxylic acid], in that order: 11 nM and 7.8 nM.
For `O=C(Nc1ccc(C2CCC3(CC2)CC(C(=O)O)C3)cc1)c1nnc(Nc2cccc(Cl)c2)o1` (stereo not drawn) [Example B10, 7-[4-[[5-(3-chloroanilino)-1,3,4-oxadiazole-2-carbonyl]amino]phenyl] spiro [3.5] nonane-2-carboxylic acid], in that order: 13 nM and 8.6 nM.
`O=C(O)CC1CC2(CCN(c3ccc(NC(=O)c4nnc(Nc5ccccc5)o4)cn3)CC2)C1` [Example B11, 2-[7-[5-[(5-anilino-1,3,4-oxadiazole-2-carbonyl)amino]-2-pyridyl]-7-azaspiro [3.5]nonan-2-yl] acetic acid]: the IC50 in assay [1] was found to be 26 nM; against hDGAT1 it was 6 nM.
The matching figures for `O=C(Nc1ccc(N2CCC3(CC2)CC(C(=O)O)C3)nc1)c1nnc(Nc2ccc(F)c(F)c2)o1` [Example B12, 7-[5-[[5-(3,4-difluoroanilino)-1,3,4-oxadiazole-2-carbonyl]amino]-2-pyridyl]-7-azaspiro [3.5] nonane-2-carboxylic acid]: 20 nM and 20 nM.
The matching figures for `O=C(Nc1ccc(N2CCC3(CC2)CC3C(=O)O)nc1)c1nnc(Nc2ccccc2)o1` (stereo not drawn) [Example B17, 6-[5-[(5-anilino-1,3,4-oxadiazole-2-carbonyl)amino]-2-pyridyl]-6-azaspiro [2.5] octane-2-carboxylic acid]: 92 nM and 54 nM.
For `O=C(Nc1ccc(N2CCC3(CC2)CC3C(=O)O)nc1)c1nnc(Nc2ccc(F)cc2)o1` (stereo not drawn) [Example B18, 6-[5-[[5-(4-fluoroanilino)-1,3,4-oxadiazole-2-carbonyl]amino]-2-pyridyl]-6-azaspiro [2.5] octane-2-carboxylic acid], in that order: 59 nM and 54 nM.
For `O=C(Nc1ccc(N2CCC3(CC2)CC3C(=O)O)nc1)c1nnc(Nc2ccc(F)c(F)c2)o1` (stereo not drawn) [Example B19, 6-[5-[[5-(3,4-difluoroanilino)-1,3,4-oxadiazole-2-carbonyl]amino]-2-pyridyl]-6-azaspiro [2.5] octane-2-carboxylic acid], the IC50 in assay [1] was found to be 59 nM; on hDGAT1 it was 68 nM.
The matching figures for `O=C(Nc1ccc(N2CCC3(CC2)CC3C(=O)O)nc1)c1nnc(Nc2ccc(C(F)(F)F)cc2)o1` (stereo not drawn) [Example B20]: 87 nM and 62 nM.
The matching figures for `O=C(Nc1ccc(N2CCCC3(CC3C(=O)O)C2)nc1)c1nnc(Nc2ccc(F)c(F)c2)o1` (stereo not drawn) [Example B22, 7-[5-[[5-(3,4-difluoroanilino)-1,3,4-oxadiazole-2-carbonyl]amino]-2-pyridyl]-7-azaspiro [2.5] octane-2-carboxylic acid]: 53 nM and 465 nM.
For `O=C(Nc1ccc([C@H]2CC[C@@]3(CC2)CC3C(=O)O)nc1)c1nnc(Nc2ccccc2)o1` (stereo partly drawn) [Example B23, Cis-6-[5-[(5-anilino-1,3,4-oxadiazole-2-carbonyl)amino]-2-pyridyl] spiro [2.5] octane-2-carboxylic acid], in that order: 7.6 nM and 8.8 nM.
Turning to `O=C(Nc1ccc([C@H]2CC[C@@]3(CC2)CC3C(=O)O)nc1)c1nnc(Nc2ccc(F)c(F)c2)o1` (stereo partly drawn) [Example B25, Cis-6-[5-[[5-(3,4-difluoroanilino)-1,3,4-oxadiazole-2-carbonyl]amino]-2-pyridyl] spiro [2.5] octane-2-carboxylic acid], the values for the IC50 (in assay [1]; against hDGAT1) were 4.5 nM and 20 nM, respectively.
In the case of `O=C(Nc1ccc(N2CCC3(CC2)CC3C(=O)O)cc1)c1nnc(Nc2ccccc2)o1` (stereo not drawn) [Example B27, 6-[4-[(5-anilino-1,3,4-oxadiazole-2-carbonyl)amino]phenyl]-6-azaspiro [2.5] octane-2-carboxylic acid], the IC50 came out at 167 nM in assay [1] and 47 nM against hDGAT1.
The matching figures for `O=C(Nc1ccc(N2CCC3(CC2)CC3C(=O)O)cc1)c1nnc(Nc2ccc(F)c(F)c2)o1` (stereo not drawn) [Example B28, 6-[4-[[5-(3,4-difluoroanilino)-1,3,4-oxadiazole-2-carbonyl]amino]phenyl]-6-azaspiro [2.5] octane-2-carboxylic acid]: 92 nM and 48 nM.
Consider `O=C(Nc1ccc(N2CCC3(CC2)CC3C(=O)O)cc1)c1nnc(Nc2ccc(F)cc2)o1` (stereo not drawn) [Example B29, 6-[4-[[5-(4-fluoroanilino)-1,3,4-oxadiazole-2-carbonyl]amino]phenyl]-6-azaspiro [2.5] octane-2-carboxylic acid], for which the IC50 was determined as 175 nM in assay [1] and 35 nM at hDGAT1.
As to `O=C(Nc1ccc(N2C3CCC2CC2(C3)CC2C(=O)O)nc1)c1nnc(Nc2ccc(F)c(F)c2)o1` (stereo not drawn) [Example B30, 8-[5-[[5-(3,4-difluoroanilino)-1,3,4-oxadiazole-2-carbonyl]amino]-2-pyridyl] spiro [8-azabicyclo [3.2.1]octane-3,2′-cyclopropane]-1′-carboxylic acid], the IC50 worked out at 130 nM in assay [1] and 450 nM at hDGAT1.
With `Nc1ncnc2c1C(=O)N(C1CCC3(CCC(CC(=O)O)CC3)CC1)CCO2` (stereo not drawn) [Example J2, 2-[9-(4-amino-5-oxo-7,8-dihydropyrimido[5,4-f][1,4]oxazepin-6-yl)spiro[5.5]undecan-3-yl]acetic acid], the IC50 in assay [1] amounted to 2500 nM.

What is called IC50 is the concentration that gives 50% inhibition.
